Data: paper PMC6010013, “Synthesis, physiochemical property and antimicrobial activity of novel quaternary ammonium salts” (Journal of Enzyme Inhibition and Medicinal Chemistry, 2017)

Key:
[1] = system: Aspergillus niger; test: MIC, broth tube dilution; type: cell-based; conditions: 72 h, 28 ℃, read-out: Minimal inhibitory concentration (MIC)
Text: (§1) In this paper, antimicrobial activities of 24 QASs were detected by quantitative tests. […] Benzalkonium chloride (BZK) and chlorhexidine acetate (CA) was selected as positive controls. Representative compound POT-C12QAS (2) which synthesised and evaluated in previous work was also taken as a reference compound in MIC, MBC and cytotoxicity tests. […]
(§2) agriculture were used as target pathogens in this study, including three strains of Gram-positive bacteria (S. Aureus, α-H-tococcus, β-H-tococcus), three strains of Gram-negative bacteria (E. coli, P. aeruginosa, Proteus vulgaris) and four strains of fungi (Canidia albicans, Cytospora mandshurica, Physalospora piricola, Aspergillus niger). The antimicrobial tests were assayed, according to standard CLSI methods for antimicrobial dilution susceptibility tests to measure the minimum inhibitory concentration (MIC) and minimum bactericidal concentration (MBC)2.
(§3) A broth tube dilution method was followed to determine the MIC values for all the screened compounds against the micro-organisms, and for comparison benzalkonium chloride (BZK) and chlorhexidine acetate (CA) was used as a reference. For sample preparation, each of the test compounds and reference were dissolved in DMSO or sterile water at a concentration of 1600 μg/mL, and further dilutions of the compounds and reference in culture medium MHB (Muller-Hinton Broth) were prepared at the required quantities of 400, 200, 100 etc., down to 0.39 μg/mL. Bacterial strains and fungal strains were maintained on MHA (Muller-Hinton Agar) medium at 37℃ or 28 ℃ for 12 h or 72h, respectively. The microbial inocula were prepared by suspension in 10 mL of culture medium for colonies from culture on MHA. The cell density of each inoculum was adjusted in culture medium of a 0.5 McFarland standard (1-2×10^8 CFU/mL). The final amount applied was 10^5 CFU/mL for bacteria and fungi. The microbial inocula were added to the twofold diluted samples. One growth control tube was prepared […] the addition of the compound and one blank tube was prepared without the addition of the microorganism. MIC values were read after incubation at 37℃ or 28 ℃ for bacterial and fungal strains, respectively. After 12 h or 72h, the last tube with no growth of micro-organisms was recorded to represent the MIC value expressed in μg/ml. All experiments were carried out three times. […]

[2] = system: Canidia albicans; test: MIC, broth tube dilution; type: cell-based; conditions: 72 h, 28 ℃, read-out: Minimal inhibitory concentration (MIC)
Text: as §1, §2, §3

[3] = system: Cytospora mandshurica; test: MIC, broth tube dilution; type: cell-based; conditions: Cytospora, 72 h, 28 ℃, read-out: Minimal inhibitory concentration (MIC)
Text: as §1, §2, §3

[4] = system: E. coli; test: MIC, broth tube dilution; type: cell-based; conditions: Escherichia coli, 12 h, 37℃, read-out: Minimal inhibitory concentration (MIC)
Text: as §1, §2, §3

[5] = system: P. aeruginosa; test: MIC, broth tube dilution; type: cell-based; conditions: Pseudomonas aeruginosa, 12 h, 37℃, read-out: Minimal inhibitory concentration (MIC)
Text: as §1, §2, §3

[6] = system: Physalospora piricola; test: MIC, broth tube dilution; type: cell-based; conditions: 72 h, 28 ℃, read-out: Minimal inhibitory concentration (MIC)
Text: as §1, §2, §3

[7] = system: Proteus vulgaris; test: MIC, broth tube dilution; type: cell-based; conditions: 12 h, 37℃, read-out: Minimal inhibitory concentration (MIC)
Text: as §1, §2, §3

[8] = system: S. aureus; test: MIC, broth tube dilution; type: cell-based; conditions: Staphylococcus aureus, 12 h, 37℃, read-out: Minimal inhibitory concentration (MIC)
Text: as §1, §2, §3

[9] = system: α-H-tococcus; test: MIC, broth tube dilution; type: cell-based; conditions: 12 h, 37℃, read-out: Minimal inhibitory concentration (MIC)
Text: as §1, §2, §3

[10] = system: β-H-tococcus; test: MIC, broth tube dilution; type: cell-based; conditions: 12 h, 37℃, read-out: Minimal inhibitory concentration (MIC)
Text: as §1, §2, §3

[11] = Cytotoxicity, MTT assay; type: cell-based, human; conditions: human, MTT, 24 h
Experimental: These six series of antimicrobial compounds may be applied to daily or clinical disinfectants for unbroken skin and trauma, or agricultural fungicides alternatively. Thus, their cytotoxicity for skin or body tissues are crucial. In this study, the cytotoxicity of target compounds was evaluated for human immortalised epidermal (HaCat) and human normal liver (LO2) cell line using MTT assay. […] The IC50 values of 5a, 6a, 10a, 16a, 16 b were about more than 50 μg/mL for LO2 and HaCat.
Cytotoxicity Testing with MTT Method
Human immortalized epidermal cells (HaCat) line were cultured in Dulbecco’s modified Eagle’s medium containing 10% fetal bovine serum, 1% penicillin, and 1% streptomycin at 37°C in a 5% CO2/95% air incubator MCO-15AC (SANYO). Human normal liver cells (LO2) line were cultured in Roswell Park Memorial Institute medium containing 10% fetal bovine serum, 1% penicillin, and 1% streptomycin at 37°C in a 5% CO2/95% air incubator MCO-15AC (SANYO). HaCat or LO2 cells in 96-well plate were adjusted to 1.0 × 10^5 cells mL-1 and cells were passed and cell supernatant was pour out before plating on glass slide at 37°C, 5% CO2 for 24 h. Cells were pretreated with 100 μL QAS for 24 h and cell supernatant with QAS was pour out and washed with PBS buffer system. Then, the cells were treated with the MTT solution (MTT, 3-(4,5-dimethythiazol-2-yl)-2,5-diphenyl-tetrazolium bromide, 20 μL, 5 mg/mL) for 4 h. The dark blue formazan crystal formed in the intact cells was solubilized with dimethyl sulfoxide, and absorbance at 570 nm was measured with a microplate reader (Multiskan MK3-Thermo Labsystems, USA). The results were expressed as percentage of the control value from the normal cells without treatments of QAS. […]

[12] = HaCat human immortalised epidermal cells, HaCat cells
[13] = LO2 human normal liver cells, LO2 cells

MIC [1] [µg/mL]	MIC [2] [µg/mL]	MIC [3] [µg/mL]	MIC [4] [µg/mL]	MIC [5] [µg/mL]	MIC [6] [µg/mL]	MIC [7] [µg/mL]	MIC [8] [µg/mL]	MIC [9] [µg/mL]	MIC [10] [µg/mL]	melting point [°C]	Structure (SMILES)	IC50 at 24 h [11, 12] [µg/mL]	IC50 at 24 h [11, 13] [µg/mL]	IC50 at 24 h ([11]; HaCat cells) [µg/mL]
3.12	6.25	3.12	25	12.5	3.12	25	6.25	6.25	6.25	–	C[N+](CCO)(CCO)CCCCCCCCCCCCSc1nnc(-c2ccccc2)o1 [Compound 2, reference compound]	18.3 ± 2.21	14.2 ± 2.15	–
12.5	25	12.5	25	50	3.12	25	25	12.5	6.25	102 to 103	C[N+](CCO)(CCO)CCCCCCCCCCSc1nnc(-c2ccc(C(F)(F)F)cc2)o1.[Br-] [Compound 6c]	12.1 ± 1.57	19.6 ± 1.62	–
3.12	12.5	6.25	6.25	25	1.56	12.5	3.12	6.25	1.56	–	[H]/N=C(\N/C(=N/[H])NCCCCCCNC(=N)NC(=N)Nc1ccc(Cl)cc1)Nc1ccc(Cl)cc1 [CA, chlorhexidine acetate, reference compound]	–	–	–
6.25	12.5	6.25	25	50	1.56	25	6.25	6.25	3.12	88 to 90	C[N+](CCO)(CCO)CCCCCCCCCCCCSc1nnc(-c2ccc(C(F)(F)F)cc2)o1.[Br-] [Compound 6d]	5.25 ± 0.37	5.86 ± 0.61	–

Structure (SMILES)	MIC [1] [µg/mL]	MIC [2] [µg/mL]	MIC [3] [µg/mL]	MIC [4] [µg/mL]	MIC [5] [µg/mL]	MIC [6] [µg/mL]	MIC [7] [µg/mL]	MIC [8] [µg/mL]	MIC [9] [µg/mL]	MIC [10] [µg/mL]	melting point [°C]	IC50 at 24 h [11, 12] [µg/mL]	IC50 at 24 h [11, 13] [µg/mL]	IC50 at 24 h ([11]; HaCat cells) [µg/mL]
C[N+](CCO)(CCO)CCCCCCCCCCCCSc1nnc(-c2ccc(F)cc2)o1 [Compound 5d]	25	12.5	12.5	~25	~50	3.12	~25	~12.5	~12.5	~6.25	–	–	6.95 ± 0.62	6.14 ± 0.53
C[N+](CCO)(CCO)CCCCCCCCCCCCSc1nc2ccccc2s1 [Compound 13d]	~3.12	~6.25	~1.56	~25	~25	~3.12	~25	~6.25	~12.5	~1.56	–	–	8.96 ± 0.46	6.02 ± 0.35
